Measured values as given in PubChem BioAssay (NCI).
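A five-concentration, 48-hour dose response in 96-well plates underlies each endpoint, interpolated linearly between surrounding concentrations. GI50 marks 50% less growth. TGI marks complete inhibition of growth.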

Assays:
Experiment in all cases: DTP human tumour cell line panel, 48 h
COLO 205 colon = tested on: COLO 205 colon
NCI-H23 lung = tested on: NCI-H23 lung
LOX IMVI melanoma = tested on: LOX IMVI melanoma
IGROV1 ovarian = tested on: IGROV1 ovarian
CAKI-1 renal = tested on: CAKI-1 renal
SW-620 colon = tested on: SW-620 colon

| Structure (SMILES) | GI50 (COLO 205 colon) | TGI (COLO 205 colon) | GI50 (NCI-H23 lung) | TGI (NCI-H23 lung) | GI50 (LOX IMVI melanoma) | TGI (LOX IMVI melanoma) | GI50 (IGROV1 ovarian) | TGI (IGROV1 ovarian) | GI50 (CAKI-1 renal) | TGI (CAKI-1 renal) | GI50 (SW-620 colon) | TGI (SW-620 colon) |
| --- | --- | --- | --- | --- | --- | --- | --- | --- | --- | --- | --- | --- |
| C=C(c1ccc(OC)c(/C=C/C(=O)c2cc(OC)c(OC)c(OC)c2)c1)c1cc(OC)c(OC)c(OC)c1 | 2.03 µM | 4.98 µM | 1.95 µM | 4.9 µM | 0.582 µM | 1.95 µM | 2.07 µM | 5.88 µM | 1.28 µM | 10.5 µM | 0.6 µM | 2.38 µM |
| COc1ccc2nc(-c3ccc(Cl)cc3)cc(-c3nnc(SCC(=O)Nc4ccc(/C(C)=N\O)cc4)o3)c2c1 | 1.15 µM | 3.53 µM | 1.38 µM | 4.3 µM | 1.76 µM | 6.92 µM | 3.93 µM | 20.6 µM |  |  | 1.15 µM | 2.54 µM |
| CC/C=C\C[C@H](O)C/C=C1/C(=O)C=C[C@@H]1C/C=C\CCCC(=O)OCCS(=O)(=O)c1ccccc1 | 2.85 µM | 6.89 µM | 2.82 µM | 10.6 µM | 1.44 µM | 3.66 µM | 6.26 µM | 23.3 µM | 3.86 µM | 13.7 µM | 4.07 µM | 14.9 µM |
| COc1ccccc1CN=C1NC(=O)/C(=C/c2ccc3ncccc3c2)S1 | 5.92 µM | > 24.1 µM | 8.65 µM | > 25 µM | 7.38 µM | > 25 µM | 6.56 µM | > 19.4 µM | 6.84 µM | > 25 µM | 4.54 µM | > 25 µM |
| Cc1ccc(C(=O)Nc2ccc(CN3CCN(C)CC3)c(C(F)(F)F)c2)cc1C#Cc1cnc(N)c2ccc(C#N)cc12 | 0.28 µM | > 46.5 µM | 1.1 µM | 18.2 µM | 0.0419 µM | 6.79 µM | 0.0188 µM | 9.55 µM | 0.0865 µM | 8.48 µM | 1.8 µM | > 28.3 µM |
| COc1ccc(/C=C(/C(=O)N2CCN(c3ccc(C)cc3)CC2)c2cc(OC)c(OC)c(OC)c2)cc1N | 0.339 µM | 1.47 µM | 0.438 µM | > 100 µM | 0.221 µM | > 100 µM | 0.304 µM | > 100 µM | 0.465 µM | > 100 µM | 0.407 µM | > 100 µM |
| Nc1c(C(=O)c2cccc(C(O)(CO)CO)c2)cnn1-c1ccc(F)cc1 | > 25 µM | > 25 µM | > 25 µM | > 25 µM | > 25 µM | > 25 µM | > 25 µM | > 25 µM | > 25 µM | > 25 µM | > 25 µM | > 25 µM |
| COc1ccc(C(=O)OC2C(OC3C(O)COC(O[C@H]4C[C@H]5[C@@H]6CC=C7C[C@@H](O)CC[C@]7(C)[C@H]6CC[C@]5(C)[C@H]4[C@H](C)C(=O)CCC(C)C)C3OC(=O)C(C)C)OCC(O)C2O)cc1 (stereo partly drawn) | 0.0575 µM | 0.325 µM | 0.175 µM | 4.67 µM | 0.0107 µM | 0.0488 µM | 0.0219 µM | 4.22 µM | 0.0172 µM | 1.64 µM | 0.0125 µM | 0.389 µM |
| COc1ccc(-c2cc(=O)c3c(OC)c(O)c(OC)cc3o2)cc1 |  | > 100 µM |  | > 100 µM |  | > 100 µM |  | > 100 µM |  | > 100 µM |  | > 100 µM |
| O=S1(=O)OCc2ccccc21 |  | > 100 µM |  | > 100 µM |  |  |  | > 100 µM |  |  |  | > 100 µM |
| CCCCCCCCCCCCCCCCCc1cc(Cl)nc(Cl)n1 |  |  |  | > 100 µM |  | > 100 µM |  | > 100 µM |  |  |  | > 100 µM |
